The source of these data is US20060115431A1, “Procedures of cellular labelling with paramagnetic complexes for mri applications” (Bracco Imaging S.p.A., priority 2002, published 2006).

Data set [1] deals with esterase from swine liver [EC3.1.1.1]. The experiment in a line: In vitro evaluation of esterase activity on Gd-1 particles (turbidity, water proton relaxation rate R1). Type of data set: biochemical. The method, then:
(§1) The activity of two different enzymes (esterase from swine liver [EC3.1.1.1] and lipase from Chromobacterium viscosum [EC 3.1.1.34]) was evaluated on Gd-1 particles.
(§2) This behaviour was confirmed by measurements of the water protons relaxation rate (R1) on a NMR spectrometer (Stelar Spinmaster) operating at 0.5T and 298K.
(§3) In the presence of the esterase (2 mg) R1 rapidly rises and after 2-3 hours reaches the value expected for a soluble Gd(III) complex resulting from the hydrolysis of the ester bonds of the Gd-1 complex. The differences in the two observed curves, and therefore the different reaction kinetics, can be ascribed to the different amounts of active units per mg of the two enzymes added to the Gd complex suspension.

In data set [2] the test system is U937 monocytes differentiated to macrophages. The experiment in a line: Intracellular esterase activity on Gd-1 in intact cells. In kind it is cell-based. The method, then:
An experiment for evaluating the enzymatic activity inside intact cells was set up, using Gd-1 particles as probes. For this purpose, different capsules containing about 2×10^6 cells (U937 monocytes differentiated to macrophages as described above) were incubated with ca. 5 mg of Gd-1 particles suspended in 5 mL medium (RPMI) for four hours at 37° C. After this period the cells were washed three times with PBS, covered with further 5 ml RPMI and re-incubated for different times at 37° C. In this way it was possible to isolate the contribution deriving from the esterase-catalysed hydrolysis of Gd-1 particles for the time interval that […] the internalisation step. The proton relaxation rate was measured at successive time intervals (0.5, 1, 2 hours). After 4 hours incubation in the presence of Gd-1 particles the cells internalise about 60 nmol complex, but only 50% of the internalised particles is hydrolysed in this time and contributes to the total relaxivity. In fact, the relaxivity of the cytosolic extract is 2.5 when the cells are resuspended in a medium devoid of Gd-1 and raises to 3.7 in the following two hours of enzymatic hydrolysis. It can be therefore assumed that 80% of Gd-1 internalised particles have been solubilised by cellular esterases (FIG. 5).

The subject of data set [3] is U937 cells. The experiment in a line: Internalization assay of sonicated Gd-1 particles with U937 cells endowed with macrophagic activity. Type of data set: cell-based. The settings on record: 0.2 mg Gd-1 in medium, ca. 4 hours incubation. The method, then: The particles obtained by the sonication procedure described in example 5 has been tested in an internalization assay with the U937 cells endowed with macrophagic activity. The incubation medium contains 0.2 mg of Gd-1 (total). After ca. 4 hours of incubation the amount of Gd internalized reached a maximum value of 2×10^−8 moles/mg of protein. This means that ca 10% is taken up by the cells. Such amount is well sufficient to allow the visualisation of these cells. Once the enzymatic degradation process proceeds the signal intensity progressively increases to reach a steady state which lasts for a time long enough for the type of applications of this protocol.

Data set [4] relates to neutrophiles. Briefly: Labelling of neutrophiles with sonicated Gd-1 particles. Type of data set: cell-based. The settings on record: ca. […]10^6 neutrophiles, 0.4 mg particles, 37° C. The method, then: One of the applications for labelled cells deals with the identification of infection loci in patients affected by fever of unknown origin. This imply the labelling of Neutrophiles obtained from the standard procedures from a specimen of blood drawn from the patient. After labelling the neutrophiles have to be re-injected in the patient who is subjected to MRI examination.
The labelling of neutrophiles (ca. 2.5×10^6) has been carried out by incubating them (5 ml) in a medium containing 0.4 mg of particles of Gd-1 prepared according to example 5.
After 2.5 h of incubation at 37° C., the cells were harvested, whashed several times with PBS, then analyzed. The content of Gd per mg protein is 8.8×10^−8 moles, i.e. an amount that after the intracellular degradation of the particle, is well sufficient to allow the visualization of the labelled cells by MRI techniques.

Data set [5] has as its system macrophages esterase. The experiment in a line: Macrophage lysate esterase on Gd-1 (R1 increase). Type of data set: biochemical. The settings on record: about 4×10^6 macrophages lysed by sonication, about 1 mg Gd-1. The method, then:
Afterwards, the macrophages esterase was tested. For this purpose, about 4×10^6 macrophages were subjected to lysis by sonication and about 1 mg Gd-1 was added to the lysate. The enzyme present in the cellular lysate rapidly cleaves the hydrophobic ester groups, thus releasing the soluble Gd complex. The formation of soluble Gd complex is well followed by the increase of water proton relaxation rate (FIG. 2). After about two hours the enzymatic reaction reaches the steady state.

Data set [6] concerns the target lipase from Chromobacterium viscosum [EC 3.1.1.34] (Pseudarthrobacter phenanthrenivorans, UniProt P0DUB9). The experiment in a line: In vitro evaluation of lipase activity on Gd-1 particles (turbidity, R1). Type of data set: biochemical. The conditions noted are these: HEPES buffer 50 mM, pH=8, 310K. The method, then: as §1, §2, §3
Data set [7] has as its system U937 monocytes. Briefly: Phagocytic uptake of Gd-1 particles on U937 monocytes differentiated with TPA. In kind it is cell-based. The method, then:
The phagocytic uptake of the Gd-1 particles was carried out on U937 monocytes previously treated for three days with TPA to induce cell differentiation. The size of the Gd-1 particles was determined by electron microscope observation and the measured diameter ranged from 0.5 to 10 μm. Most particles had diameter <10 μm, which is sufficiently small to allow the phagocytic process. The uptake was carried out at 37° C. and the cells were incubated with two different amounts of Gd-1 at subsequent times (1 to 12 hours). After incubation at 37° C. for several hours, the medium was removed and the cells were washed three times with 5 mL PBS. In these conditions, Gd-1 particles suspended in the medium are not solubilised; in fact, the relaxivity of the medium remains very close to that of pure water (0.45 s^−1). The amount of Gd(III) detected in the cells is directly proportional to incubation time and in 12 hours the saturation of the kinetic curve is not reached (FIG. 3). As expected, the amount of phagocyted Gd(III) is proportional to the amount of complex added to the culture medium at time zero. It is interesting to compare this behaviour with the water proton relaxation rate in the cytosolic extract. This was obtained by freezing three times the cells at −80° C. after completion of phagocytosis. […]

lipase from Chromobacterium viscosum [EC 3.1.1.34], sequence (P0DUB9 whole entry): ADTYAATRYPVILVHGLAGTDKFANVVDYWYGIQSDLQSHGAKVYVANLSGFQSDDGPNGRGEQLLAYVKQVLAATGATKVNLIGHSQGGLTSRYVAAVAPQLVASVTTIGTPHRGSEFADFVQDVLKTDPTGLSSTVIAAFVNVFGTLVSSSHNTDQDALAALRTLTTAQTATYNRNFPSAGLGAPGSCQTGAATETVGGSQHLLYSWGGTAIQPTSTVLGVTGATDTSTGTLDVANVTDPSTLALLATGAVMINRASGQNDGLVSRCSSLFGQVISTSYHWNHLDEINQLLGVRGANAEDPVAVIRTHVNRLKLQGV

Consider `CCCCCCCCCCCCCCCCCC(=O)OCCOCCNC(=O)CN(CCN(CCN(CC(=O)O)CC(=O)NCCOCCOC(=O)CCCCCCCCCCCCCCCCC)CC(=O)O)CC(=O)O` [Gd-1], for which the “turbidity of the suspension in the presence of the enzyme” value in data set [1] (HEPES buffer 50 mM, pH=8, 310K) is on record as “progressive decrease in turbidity”; in data set [6], “progressive decrease in turbidity”. Besides, the “time for R1 to reach the value expected for a soluble Gd(III) complex” value in data set [1] (esterase 2 mg) lay within 2 to 3 h. In data set [1] (no enzyme, 0.5T, 298K, not different from pure water), the “water protons relaxation rate (R1) in the absence of enzyme” value was 0.38 s⁻¹. Further, in data set [2] (about 2×10^6 cells, ca. 5 mg particles in 5 mL RPMI, 4 hours, 37° C.), the “amount of complex internalised by the cells” value is recorded as “about 60 nmol”. Besides, in data set [2] (after 4 hours incubation with particles), the “fraction of the internalised particles hydrolysed” value came out at 50%. For the same compound, the entries for the “relaxivity of the cytosolic extract” value in data set [2] (after the following two hours of enzymatic hydrolysis) and in data set [2] (when cells are resuspended in a medium devoid of Gd-1) were 3.7 and 2.5, respectively. Moreover, the “fraction of internalised particles solubilised by cellular esterases” value in data set [2] (after two further hours of hydrolysis) amounted to 80%. For the same compound, in data set [3], the “amount of Gd internalized (maximum value)” value is listed as 2×10^−8 moles/mg of protein. The “fraction taken up by the cells” value in data set [3] is listed as approximately 10%. The “content of Gd per mg protein” value in data set [4] was 8.8e-08 mol. For the same compound, the “time for the enzymatic reaction to reach the steady state” value in data set [5] was “about two”. Moreover, the “relaxivity of the medium with suspended particles” value in data set [7] (culture medium, 37° C., particles not solubilised) was approximately 0.45 s⁻¹.
With `CC(O)CN1CCN(CC(=O)[O-])CCN(CC(=O)[O-])CCN(CC(=O)[O-])CC1.[Gd+3]` (stereo not drawn) [Gd-HPDO3A, reference compound], the “presence of the complex in the cells (relaxation rate of water protons in the cytosolic extract)” value in data set [7] (soluble complex incubated in the same conditions as Gd-1 particles) is listed as “complete absence”.
